Results published in patent publication US20260132165A1, “MODIFIED NUCLEOSIDE ANALOGUE AND USE THEREOF, AND NUCLEOSIDE ANALOGUE-CONTAINING DOUBLE-STRANDED OLIGONUCLEOTIDE AND USE THEREOF” (RIGERNA THERAPEUTICS (BEIJING) CO., LTD., priority 2023, published 2026).
Where “and” joins values, the source holds several entries; their conditions need not be identical. Identical values can stand only once.

Columns and labels:
[1] = test system: SOD1; test: Test Example 2: inhibitory activity of NM031 conjugated siRNA on SOD1 by intrathecal administration to mice; format: in vivo, C57BL/6j mice; conditions: D9
Description: 6-8 Week-old C57BL/6j mice were randomly grouped into 4 groups by body weight. PBS group was dosed with siRNA-free PBS solution, RX899001 group was dosed with siRNA compound RX899001 without vector conjugation, RZ899001 group was dosed with siRNA RZ899001 (the sense strand with the Uhd conjugation at Position 4) prepared in Example 1, and RZ899008 was dosed with siRNA RZ899008 (the sense strand with the NM031 conjugation at Position 4) prepared in Example 1. Mices in each group were anesthetized with isoflurane. After anesthetization, lumbar region thereof was sprayed wet with 75% disinfecting alcohol. 10 μL (concentration […]) of siRNA drug containing PBS solvent was sucked with an insulin injection needle, the mouse lumbar region was pinched with the left-hand index finger and thumb, patella crest was propped against, and needle was held by the right hand. The needle was bent by forceps in advance, wherein the needle was first bent in the middle by 80° to 90°, then a front half part of the needle was bent in half, and the whole needle was bent in an are shape of about 60° to 90°. Mouse abdominal region was padded with an article with a thickness of about 2 cm. The needle was inserted from a joint of lumbar spines L5 and L6 of mice, and when inserting the needle, the hand was slightly inclined forwards to insert the needle. […] After completion of the injection, the needle was slowly withdrawn at uniform velocity. The administration dose to each mouse in RX899001 group, RZ899001 group and RZ899008 group was 800 μg, a total volume injected was 10 μL, and the PBS group was administered with the same volume of siRNA-free PBS solution. After the animals woke up, the animals were returned back to the animal feeding room and further fed. The day of administration was recorded as first day (D1), and the mice were sacrificed on ninth day (D9). Lumbar spine, thoracic spine and cerebellum were respectively taken and stored in the RNAlater.
RNA extraction: an appropriate amount of lumbar spine, thoracic spine and cerebellum samples were respectively taken out from the RNAlater, and smashed for 60 s in Tissuelyser type II full-automatic tissue homogenizer, and total RNAs of various tissue samples were extracted using the full-automatic nucleic acid extraction instrument and the nucleic acid extraction kit from Zhejiang Hanwei Science and Technology Co. Ltd. according to methods described in instructions. Reverse transcription reaction: 1 μg of the extracted total RNAs of various tissue samples were respectively taken, and configured into 20 μL of reverse transcription system according to a method described in kit instructions by using a reverse transcription kit (Reverse Transcription System, A3500) from Promega Corporation and selecting Oligo (dT)15 reverse transcription primers, and the reverse transcription reaction was completed. After the reaction was ended, 80 μL of RNase-Free water was added into the reverse transcription system to provide cDNA solution for Real-time PCR detection.
Real-time PCR detection: 20 μL of Real-time PCR reaction system per PCR detection well was configured according to a method described in kit instructions using SYBR™ Select Master Mix (Catalog number: 4472908) reagent from ABI company. Each detection system contained 5 μL of cDNA template obtained from the above reverse transcription reaction, 10 μL of SYBR™ Select Master Mix, 0.5 μL of 10 μM upstream primers, 0.5 μL of 10 μM downstream primers (see TABLE 5 for primer information), and 4 μL of RNase-Free H2O. The configured reaction system was subjected to Real-time PCR amplification on ABI StepOnePlus PCR instrument by a three-step method, wherein an amplification procedure was pre-denaturation at 95° C. for 10 min, then denaturation at 95° C. for 30 s, annealing at 60° C. for 30 s, and extension at 72° C. for 30 s; and processes of denaturation, annealing, and extension were repeated for 40 cycles. […]

[2] = test system: target gene Superoxide Dismutase 1 (SOD1); test: Test Example 1: inhibitory activity of NM031 conjugated siRNA on SOD1 by lateral ventricular administration to mice (real-time PCR, ΔΔCt); format: in vivo, C57BL/6j mice; conditions: lateral ventricle, 200 μg per mouse, D5
Text: In the context of the present disclosure, unless otherwise stated, Real-time PCR detection data in in vivo activity experiments involved in the present disclosure are all used for relative quantitative calculation of gene mRNA of interest in various test groups by a ΔΔCt method, and a calculation method is summarized as follows:
Taking the control group as reference, expression level of the gene mRNA of interest in the test group is normalized, and remaining expression level of the gene mRNA of interest in the […] is defined as 100%.
6-8 Week-old C57BL/6j mice were randomly grouped by body weight, 5 per group, 2 groups in total, i.e., PBS group (dosed with siRNA-free PBS solution) and RZ899008 group (dosed with siRNA RZ899008 (the sense strand with the NM031 conjugation at Position 4) prepared in Example 1). Mice in each group were anaesthetized by intraperitoneal injection of 5% chloral hydrate, and were immobilized with the cerebral stereotaxic apparatus after being anaesthetized. Head skin was cut, positioning coordinates of right lateral ventricle were found with the stereotaxic apparatus and position was marked on surface of skull, wherein the positioning coordinates of the lateral ventricle were as follows: in coordinate axes with Bregma point as an origin, ML (mediolateral, left and right of middle raphe, i.e., X-axis) value=1.2 mm, and AP (anteroposterior, bregma anterior and posterior, i.e., Y-axis) value=−0.58 mm, and DV (dorsoventral, down skull (cerebral dura mater) plane, i.e., Z-axis) value=2.2 mm. A dental electric drill was used to drill in the skull above a position of interest, and then sucked drug was injected into the lateral ventricle by a micro-dosing pump. An administration dose to each mouse in the RZ899008 group was 200 μg (dose being measured as siRNA, concentration of siRNA being 20 μg/μL, PBS buffer as a solvent), and a total injection volume was […]. PBS group was administered with the same volume of siRNA-free PBS solution. […] The day of administration was recorded as first day (D1), and the mice were sacrificed on the fifth day (D5). […]

## RZ899008: siRNA, the sense strand with the NM031 conjugation at Position 4; SEQ ID NO: 3 / 2 (sense UUUNAAUCCUCACUCUAAA; antisense UUUAGAGUGAGGAUUAAAAUG; NM031 conjugate at sense position 4; modified_base 1..2 OTHER; 2'-methoxy and 5'-thiophosphate modified nucleotides; modified_base 3 OTHER; 2'-methoxy modified nucleotide; modified_base 4 OTHER; n is the synthetic nucleotide analog NM031 as described in the disclosure (e.g., NM031-1 ((1-[(2R,3R,4S,5R)-5-{[bis(4-methoxyphenyl)(phenyl)methoxy]methyl}-3,4-dihydroxyoxolan-2-yl]-3H-pyrimidin-2,4-dione)).; modified_base 5..6 OTHER; 2'-meth; modified_base 1 OTHER; 2'-methoxy and 5'-thiophosphate modified nucleotide; modified_base 2 OTHER; 2'-fluoro and 5'-thiophosphate modified nucleotide; …)
[1]; cerebellum, intrathecal, 800 μg per mouse
  Cerebellum Mean value of inhibition rate %: 67.72%
[1]; lumbar spine, thoracic spine and cerebellum, intrathecal 800 μg per mouse
  activity compared with control molecule RZ899001 and molecule RX899001 without vector conjugation: superior
[1]; lumbar spine, intrathecal, 800 μg per mouse
  Lumbar spine Mean value of inhibition rate %: 80.09% and 78.99%
[1]; thoracic spine, intrathecal, 800 μg per mouse
  Thoracic spine Mean value of inhibition rate %: 78.99% and 80.09%
[2]; administration-side hippocampus
  Hippocampus Mean value of inhibition rate %: 82.94%
[2]; administration-side parietal cortex
  Parietal cortex Mean value of inhibition rate %: 73.57%
[2]; cerebellum
  Cerebellum Mean value of inhibition rate %: 40.08%
